Columns and labels:
Experiment in all cases: relative viability (nuclei count vs DMSO), 5 days (fraction); higher = more cells survive
NVP-TAE684 + Linsitinib = compound: COc1cc(N2CCC(N3CCN(C)CC3)CC2)ccc1Nc1ncc(Cl)c(Nc2ccccc2S(=O)(=O)C(C)C)n1 [NVP-TAE684] + C[C@]1(O)C[C@@H](c2nc(-c3ccc4ccc(-c5ccccc5)nc4c3)c3c(N)nccn32)C1 [Linsitinib] (partner 1 µM)
Summary of the method: (§1)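 Relative viability is defined as nuclei in treated wells over nuclei in vehicle wells. Duplicate plates were run and medians reported. Lung cancer cell lines in 1536-well plates were dosed by pin tool one day after seeding, with one drug or with a fixed anchor-drug dose plus five library-drug doses (not always all listed) in √10 steps, and nuclei were counted after 5 days.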

[1] = compound: C1=CC=C2C(=C1)N=C(S2)C(C#N)C3=NC(=NC=C3)NCCC4=CN=CC=C4 + Cc1nc(NC(=O)N2CCC[C@H]2C(N)=O)sc1-c1ccnc(C(C)(C)C(F)(F)F)c1 [Alpelisib] (partner 2 µM)
Summary of the method: as §1

NVP-TAE684 + OSI-027 = compound: COc1cc(N2CCC(N3CCN(C)CC3)CC2)ccc1Nc1ncc(Cl)c(Nc2ccccc2S(=O)(=O)C(C)C)n1 [NVP-TAE684] + COc1cccc2cc(-c3nc([C@H]4CC[C@H](C(=O)O)CC4)n4ncnc(N)c34)[nH]c12 [OSI-027] (partner 0.5 µM)
Summary of the method: as §1

NVP-TAE684 + AZD7762 = compound: COc1cc(N2CCC(N3CCN(C)CC3)CC2)ccc1Nc1ncc(Cl)c(Nc2ccccc2S(=O)(=O)C(C)C)n1 [NVP-TAE684] + NC(=O)Nc1cc(-c2cccc(F)c2)sc1C(=O)N[C@H]1CCCNC1 [AZD7762] (partner 0.2 µM)
Summary of the method: as §1

CUDC-101 + Vorinostat = compound: C#Cc1cccc(Nc2ncnc3cc(OC)c(OCCCCCCC(=O)NO)cc23)c1 [CUDC-101] + O=C(CCCCCCC(=O)Nc1ccccc1)NO [Vorinostat] (partner 1 µM)
Summary of the method: as §1

Row | Cell Line | relative viability (NVP-TAE684 + Linsitinib; first compound 0.2 µM) | relative viability (NVP-TAE684 + Linsitinib; first compound 0.6325 µM) | relative viability (NVP-TAE684 + Linsitinib; first compound 2 µM) | relative viability ([1]; first compound 0.01581 µM) | relative viability ([1]; first compound 0.05 µM) | relative viability ([1]; first compound 0.1581 µM) | relative viability ([1]; first compound 0.5 µM) | relative viability (NVP-TAE684 + OSI-027; first compound 0.2 µM) | relative viability (NVP-TAE684 + OSI-027; first compound 0.6325 µM) | relative viability (NVP-TAE684 + OSI-027; first compound 2 µM) | relative viability (NVP-TAE684 + AZD7762; first compound 0.2 µM) | relative viability (NVP-TAE684 + AZD7762; first compound 0.6325 µM) | relative viability (NVP-TAE684 + AZD7762; first compound 2 µM) | relative viability (CUDC-101 + Vorinostat; first compound 0.01 µM) | relative viability (CUDC-101 + Vorinostat; first compound 0.03162 µM) | relative viability (CUDC-101 + Vorinostat; first compound 0.1 µM) | relative viability (CUDC-101 + Vorinostat; first compound 0.3162 µM) | relative viability (CUDC-101 + Vorinostat; first compound 1 µM) | relative viability ([1]; first compound 0.005 µM)
1 | NCI-H460 | 0.732 | 0.911 | 0.298 | 0.508 | 0.503 | 0.579 | 0.309 | 0.811 | 0.607 | 0.162 | 0.767 | 0.568 | 0.591 | 0.679 | 0.73 | 0.695 | 0.597 | 0.409 | 
2 | NCI-H1734 | 0.849 | 0.92 | 0.818 | 0.729 | 0.518 | 0.726 | 0.714 | 0.679 | 0.518 | 0.387 | 0.481 | 0.443 | 0.432 | 0.882 | 0.76 | 0.832 | 0.595 | 0.369 | 0.695
3 | NCI-H1915 | 1.16 | 1.18 | 1.01 | 1.05 | 1.04 | 1.12 | 1.05 | 0.678 | 0.668 | 0.611 | 0.699 | 0.742 | 0.595 | 0.527 | 0.511 | 0.481 | 0.358 | 0.374 | 0.997
4 | NCI-H1975 | 1.01 | 0.97 | 0.269 | 0.669 | 0.62 | 0.668 | 0.403 | 0.732 | 0.594 | 0.341 | 0.694 | 0.649 | 0.381 | 0.687 | 0.712 | 0.781 | 0.75 | 0.642 | 0.352
5 | NCI-H2087 | 1.04 | 1.04 | 0.982 | 1.14 | 0.979 | 1.14 | 1.05 | 0.538 | 0.438 | 0.354 | 1.47 | 1.37 | 1.22 | 0.928 | 0.886 | 0.684 | 0.528 | 0.38 | 1.06
6 | LCLC-97TM1 | 0.136 | 0.189 | 0.136 | 0.208 | 0.257 | 0.257 | 0.217 | 0.52 | 0.473 | 0.14 | 0.283 | 0.2 | 0.194 | 0.815 | 0.778 | 0.663 | 0.56 | 0.195 | 0.217
7 | EPLC-272H | 1.08 |  | 1.3 | 0.819 | 1.02 | 1.03 | 0.768 | 0.227 | 0.251 | 0.203 | 0.175 | 0.175 | 0.208 | 0.345 | 0.38 | 0.464 | 0.229 | 0.118 | 0.854
8 | CAL-12T | 0.726 | 0.767 | 0.541 | 1.23 | 1.31 | 1.49 | 1.05 | 0.538 | 0.372 | 0.158 | 0.741 | 0.492 | 0.418 | 0.761 | 0.803 | 0.919 | 0.828 | 0.487 | 0.982
9 | NCI-H1755 | 1.05 | 1.05 |  | 1 | 0.959 | 1.03 | 0.849 | 0.636 | 0.672 | 0.453 | 0.434 | 0.427 | 0.328 | 0.759 | 0.741 | 0.73 | 0.67 | 0.637 | 0.839
10 | H3255 | 0.903 | 0.927 | 0.69 | 0.685 | 0.591 | 0.806 | 0.692 | 0.531 | 0.602 | 0.4 | 0.939 | 0.823 | 0.881 | 0.824 | 0.786 |  | 1.07 | 0.368 | 0.545
11 | NCI-H441 | 0.521 | 0.627 | 0.472 | 0.623 | 0.803 | 1.27 | 0.487 | 0.581 | 0.626 | 0.379 | 1.12 | 1.04 | 0.598 | 0.968 | 0.915 | 0.784 | 0.937 | 0.618 | 
12 | NCI-H1793 | 0.734 | 0.857 | 0.9 | 0.521 | 0.55 | 0.763 | 0.739 | 0.267 | 0.274 | 0.204 | 0.479 | 0.247 | 0.169 | 0.858 | 0.774 | 0.558 | 0.675 | 0.331 | 0.692
13 | LK-2 | 0.708 | 0.659 | 0.623 |  | 0.993 | 1.3 | 1.11 | 0.178 | 0.17 | 0.168 | 0.49 | 0.268 | 0.129 | 0.37 | 0.407 | 0.228 | 0.23 | 0.158 | 
14 | HCC-78 | 0.403 | 0.359 | 0.294 | 0.316 | 0.353 | 0.366 | 0.378 | 0.339 | 0.254 | 0.348 | 0.603 | 0.52 | 0.376 | 0.441 | 0.413 | 0.46 | 0.377 | 0.259 | 0.366
15 | NCI-H2126 | 0.701 | 0.684 | 0.688 | 0.734 | 0.773 | 0.765 | 0.793 | 0.603 | 0.631 | 0.493 | 1.03 | 1.01 | 0.684 | 0.862 | 0.777 | 0.713 | 0.704 | 0.452 | 0.722
16 | RERF-LC-KJ | 0.921 | 1.01 |  | 0.849 | 0.759 | 0.899 | 0.82 | 0.514 | 0.448 | 0.306 | 0.97 | 0.985 | 0.729 | 0.732 | 0.783 | 0.612 | 0.659 | 0.439 | 0.915
17 | NCI-H3122 | 0.266 | 0.222 | 0.184 | 0.791 | 0.819 | 0.977 | 0.852 | 0.173 | 0.127 | 0.154 | 0.22 | 0.184 | 0.127 | 1.04 | 0.912 | 0.895 | 1.01 | 0.685 | 0.676
